Test results published in patent US20070197591A1, “USE OF PALIPERIDONE FOR THE TREATMENT OF A MENTAL DISORDER IN A PSYCHIATRIC PATIENT WITH REDUCED HEPATIC FUNCTION” (priority 2005, published 2007).
Read-outs that look alike come from different tables or passages of the source.

Test: Single-dose pharmacokinetics of IR paliperidone in subjects with moderate hepatic impairment vs normal hepatic function
Type: in vivo, human
Settings: for CL renal / AUC(0-inf) / half-life / Tmax / Cmax: both sexes, human, 1 mg; for CL renal: plasma and urine; for AUC(0-inf) / half-life / Tmax / Cmax: plasma; for half-life: read-out: t1/2 (terminal half-life) (converted); for Tmax: read-out: tmax, median (range); for Ae, % dose: urine
From the text: Objectives: The primary objective of this study was to investigate the single-dose pharmacokinetics of immediate-release (IR) paliperidone, after oral administration, in subjects having moderate hepatic impairment (“hepatically-impaired subjects”) compared with subjects having normal hepatic function (“healthy subjects”). The secondary objective was to document the plasma protein binding and disposition of the enantiomers of paliperidone. In addition, the tolerability and safety profile of IR paliperidone was compared between hepatically impaired subjects and healthy subjects. Methodology: This was a single-dose, parallel-group, open-label, single-center, Phase I study of IR paliperidone in subjects having either normal or moderately impaired hepatic function. The groups, consisting of 10 subjects each, were demographically matched with respect to age, weight, sex, and ethnicity. The study consisted of a screening period of up to 3 weeks and an open-label, single-dose treatment period (Days 1 through 5). On Day 1, a single dose of 1 mg IR paliperidone oral solution was administered after a fast of at least 10 hours; subjects continued to fast for 4 hours following study drug administration. The 96-hour follow-up consisted of serial sample collection of blood and urine for pharmacokinetic analysis and safety and tolerability assessments. Subjects remained confined to the study site through the 72-hour pharmacokinetics sampling, and consumed standard institutional meals while in the study site. Subjects were released after the 72-hour sampling, then returned to the study site on Day 5 before the 96-hour pharmacokinetics sampling: end-of-study procedures were performed immediately hereafter. A blood sample for DNA isolation was collected to allow for genetic analysis as necessary. Diagnosis and Main Criteria for Inclusion: The study was conducted in men and women, aged 18 through 75 years, inclusive. One group of subjects had moderate hepatic impairment, with stable hepatic disease, a total Child-Pugh score of between 7 and 9, inclusive, and blood pressure that was controlled and stable on antihypertensive agents; the other group had normal hepatic function. Test Product, Dose and Mode of Administration, Batch No: 1 mg IR paliperidone (R076477) oral solution; batch 04C29/[…]. Criteria for Evaluation: Pharmacokinetics: Plasma and urine concentrations of the paliperidone enantiomers (+) R078543 and (-) R078544 were determined using an LC-MS/MS method. Concentrations of paliperidone were calculated as the sum of the enantiomer concentrations. In addition, serum and urine concentrations of creatinine were determined for the calculation of CLCR. The protein binding and unbound fraction was determined for the 2 paliperidone enantiomers. The unbound fraction for paliperidone was calculated. Based on the actual pharmacokinetic blood sampling times and actual urine collection periods, the following plasma and urine pharmacokinetic parameters were determined for paliperidone and its enantiomers: Cmax, tmax, tlast, AUClast, λZ, t1/2, AUC∞, % AUC∞,ex, CL/F, AUC∞+/- ratio, Ct+/- ratio per time point, unbound AUC∞, unbound CL/F or unbound CL (if relevant), Ae (per collection interval and overall), Ae,% dose, Excr. Rate, […], and CLNR. Pharmacokinetics: Descriptive statistics were evaluated for the plasma concentrations at each sampling time, and for all pharmacokinetic parameters of paliperidone and its enantiomers for each hepatic function group Graphical exploration of the paliperidone and enantiomer plasma concentrations and urine data, and the derived pharmacokinetic parameters, was performed. In addition, the enantiomer disposition was compared between the groups. Log-transformed PK parameters were fit to a general linear model with hepatic function grip as fixed effect.

[1] = Hepatically-Impaired Subjects, Total
[2] = Hepatically-Impaired Subjects, Unbound
[3] = oral, Healthy Subjects, Unbound
[4] = oral, Hepatically-Impaired Subjects, Total
[5] = oral, Hepatically-Impaired Subjects, Unbound

- CL/F (Healthy Subjects, Total): 106 ± 34.9 mL/min
- CLNR (Healthy Subjects, Total): 54.4 ± 23.7 mL/min
- Vdz (Healthy Subjects, Total): 211 ± 59.6 L
- CL/F (Healthy Subjects, Unbound): 370 ± 67.1 mL/min
- CLNR (Healthy Subjects, Unbound): 188 ± 56.8 mL/min
- Vdz (Healthy Subjects, Unbound): 748 ± 144 L
- CL/F [1]: 143 ± 43.4 mL/min
- CLNR [1]: 75.1 ± 16.2 mL/min
- Vdz [1]: 311 ± 65.2 L
- CL/F [2]: 386 ± 99.3 mL/min
- CLNR [2]: 205 ± 30.7 mL/min
- Vdz [2]: 857 ± 146 L
- clearance and volume of distribution between the groups (based on unbound concentrations): comparable
- Active renal clearance as share of the renal clearance (both groups): approximately 45%
- median time to reach maximum plasma concentration (both groups): around 1 hour
- CL renal (oral, Healthy Subjects, Total, read-out: CLR): 51.2 ± 13.4 mL/min
- CL renal (oral, Hepatically-Impaired Subjects, Total, read-out: CLR): 67.4 ± 34 mL/min
- CL renal (oral, healthy subjects (second value of '67.4 vs. 51.2'), read-out: Renal clearance): 51.2 mL/min
- CL renal (oral, hepatically-impaired subjects (first value of '67.4 vs. 51.2'), read-out: Renal clearance): 67.4 mL/min
- AUC(0-inf) (oral, Healthy Subjects, Total): 176 ± 64.4 ng·h/mL
- half-life (oral, Healthy Subjects, Total): 23.6 h
- Tmax (oral, Healthy Subjects, Total): 1 h
- AUC(0-inf) [3]: 45.8 ± 8.72 ng·h/mL
- Cmax [3]: 1.81 ± 0.292 ng/mL
- Tmax [3]: 1.25 h
- AUC(0-inf) [4]: 128 ± 42.5 ng·h/mL
- Cmax [4]: 4.57 ± 1.05 ng/mL
- half-life [4]: 26.5 h
- Tmax [4]: 1.25 h
- AUC(0-inf) [5]: 45.7 ± 12.6 ng·h/mL
- Cmax [5]: 1.59 ± 0.318 ng/mL
- Tmax [5]: 1.25 h
- Cmax (po, Healthy Subjects, Total, 1 mg IR oral solution): 7.14 ± 2.28 ng/mL
- dose excreted unchanged into urine (did not differ between the groups): Approximately 50%
- CL/F higher in hepatically-impaired compared with healthy subjects (total): about 35%
- volume of distribution higher in hepatically-impaired compared with healthy subjects (total Paliperidone): 47%
- exposure (Cmax, AUC∞) between hepatic function groups after correction for unbound fraction (unbound): comparable
- AUC∞ lower in hepatically-impaired compared with healthy subjects (unbound fraction): approximately 5%
- Cmax lower in hepatically-impaired compared with healthy subjects (unbound fraction): approximately 12%
SMILES: Cc1nc2n(c(=O)c1CCN1CCC(c3noc4cc(F)ccc34)CC1)CCCC2O (centres unmarked) [Paliperidone, paliperidone]
- Ae, % dose (Healthy Subjects): 50.1 ± 7.94 % dose
- Ae, % dose (Hepatically-Impaired Subjects): 44.7 ± 10.62 % dose
